Laboratory results published in patent US6342368B1, “WD-40-derived peptides and uses thereof” (The Board of Trustees of the Leland Stanford Junior …, priority 1994, dated 2002).
“Also recorded” adds a separate entry of the source.

Key:
[1] = system: PKC binding to recombinant RACK1; assay: Overlay / overlay-extraction assay: inhibition of PKC binding to recombinant RACK1 by peptides; design: species or system rat; settings: 10 μM peptide preincubated with PKC
Protocol: The variation in the overlay protocol consisted of incubating the putative binding peptides with a mixture of PKC isozymes for 15 minutes at room temperature before the mixture was used to contact the nitrocellulose strips containing immobilized RACK1.
Nitrocellulose strips containing immobilized RACK1, that had been contacted with a solution containing a mixture of PKC isozymes, were washed and the area corresponding to the 36 kDa (RACK1-containing) band was cut out. The pieces (containing PKC/RACK1 complexes) were incubated with sample buffer for 10 minutes at 80° C. The sample buffer and the nitrocellulose pieces were then placed in wells in the PAGE gel and subjected to SDS-PAGE to elute the bound proteins. The gel was blotted onto nitrocellulose and a Western blot analysis was carried out using the mixture of antibodies (specific for PKC α, β, γ, δ, ε and ζ isozymes) described in Example 1 part B. Bound antibodies were detected by ^125I-protein A.
Peptides derived from or homologous to WD-40 repeats of RACK1 were tested for their ability to inhibit PKC binding to recombinant RACK1. Binding of PKC to RACK1 was carried out using a variation of the overlay procedure described in Example 3 part B. In the experimental samples, peptides were incubated with a solution containing a mixture of rat brain PKC isozymes (˜10 nM each) for 15 minutes at room temperature.
Following completion of the modified overlay protocol, the samples were subjected to the overlay-extraction protocol detailed in part B, above.
The results in FIG. 3 show the binding of PKC to RACK1, carried out without (lane 1) or with (lanes 2-4) a preincubation of peptides with PKC. […] Peptide I caused an 81±6% inhibition of PKC binding to recombinant RACK1 as compared with binding in the absence of added peptide (n=3). Lanes 3 and 4 show PKC binding following a preincubation with 10 μM peptide rIII (SEQ ID NO:4) and 10 μM peptide rVI (SEQ ID NO:7), respectively. […] The results shown are representative of three independent experiments.

[2] = molecular target: T1, βPKC (Rattus norvegicus, UniProt P68403); assay: Sensitivity of βPKC to Arg-C endopeptidase (nicking); type: biochemical; settings: low activators: 2.5 μg/ml PS and 50 μM CaCl2; peptide 10 μM
T1 construct: All the solutions contained 5 nM rat brain PKC; from tissue; host or cells: rat brain
From the text: Upon activation of PKC, a pseudosubstrate autoinhibitory sequence at the N-terminus of the molecule dissociates from the catalytic site and becomes sensitive to endopeptidase Arg-C (Orr, et al.). In the absence of PKC activators, exposure of the 80 kDa βPKC to endopeptidase Arg-C has no effect on the enzyme (see FIG. 7, lane 1). In the presence of the PKC activators PS, DG and calcium, however, exposure of βPKC to Arg-C results in a “nicking” of the PKC (i.e. limited proteolysis generating a 78 kDa fragment and several small fragments (see FIG. 7, lane 2)). Continued exposure to Arg-C results in the disappearance of βPKC (Orr, et al.). The present experiment tests whether peptides derived from the WD-40 region of RACK1 alter the sensitivity of βPKC to endopeptidase Arg-C.
The methods used to assay Arg-C sensitivity are a modification of methods described by Orr, et al. Rat brain PKC (˜5 nM) was incubated at room temperature in 500 μl of 20 mM Tris-HCl buffer (pH 7.5) alone or with Arg-C (5 units/ml) in the presence or absence of the indicated peptides (final concentration 10 μM or as indicated), PS, DG, and calcium (as indicated). 50 μl aliquots were removed into 20 μl of sample buffer during the reaction as indicated (samples in all the lanes were incubated for 30 minutes , except lanes 5, and 6, which were incubated for 5 and 15 minutes, respectively). The samples were boiled for 10 minutes at 80° C. and loaded onto 8% SDS-PAGE. βPKC was detected by Western blot analysis using anti-βPKC antibodies as described in Examples 6 and 8.
PKC was incubated for the indicated time alone (lane 1) or in the presence of Arg-C (lanes 2-9), with DG (0.8 μg/ml), PS (50 μg/ml) and CaCl2 (1 mM; lane 2), with PS (50 μg/ml) and CaCl2 (1 mM; lane 3), with PS (2.5 μg/ml) and CaCl2 (50 μM; lane 4); with PS (2.5 μg/ml), CaCl2 (50 μM) and with either peptide rVI (SEQ ID NO:7; 10 μM; lanes 5-7), control peptide (SEQ ID NO:9; lane 8) or with peptide I (SEQ ID NO:1; lane 9).

[3] = system: Xenopus oocytes; assay: PKC-mediated Xenopus oocyte maturation (germinal vesicle breakdown, GVBD) after peptide microinjection; type: cell-based; settings: for plateau % GVBD (fraction of oocytes reaching maturation) following insulin exposure: peptide 50 μM, 50 nl microinjected, 20 h time course
Protocol: Exposure to insulin induces maturation in Xenopus oocytes via a PKC-dependent pathway (Smith, et al., 1992). The maturation response may be quantified by monitoring the appearance of a white spot in the animal hemisphere of the oocyte, indicating germinal vesicle breakdown (GVBD) and maturation. To assess the effects of RACK1 WD-40-derived peptides on insulin-induced PKC-mediated maturation, 50 nl of a 20 mM NaCl solution containing the indicated peptides [peptide I (SEQ ID NO:1; ●), peptide rVI (SEQ ID NO:7; ▪), or injection solution (□)] (peptides at 50 μM) were microinjected into Xenopus oocytes. […] One hour following the peptide injections, the oocytes were exposed to a solution containing insulin (8.25 μg/ml) for 2 minutes (t=0). 10-15 oocytes were used for each sample.
The data, representative of three independent experiments, are expressed as the percent of oocytes with GVBD following insulin exposure and are plotted as a function of time in FIG. 5.

[4] = system: PKC; assay: PKC autophosphorylation; type: biochemical, rat; settings: peptide 10 μM; absence of PKC activators
Protocol: Rat brain PKC (˜10 nM) was incubated with mild agitation in a final volume of 250 μl of overlay buffer, as in Example 1 either with anti-βPKC pseudosubstrate antibodies (1:10 dilution, Life Technologies, Gaithersburg, Md.) or with the indicated peptide (10 μM). Where indicated, PS (50 μg/ml), DG (0.8 μg/ml) and CaCl2 (1 mM) were also added. The amount of autophosphorylation was determined after 2 hours for the reaction with the anti-pseudosubstrate antibodies, or after 15 minutes for the other samples. 50 μl of a buffer comprised of 20 mM Tris-HCl (pH 7.5), 20 mM MgCl2, 20 μM ATP and 5 μci/ml [γ-^32P]ATP. The mixture was incubated for 15 minutes at room temperature and the reaction was stopped by adding 60 μl sample buffer (see Example 9). The samples were then boiled for 10 minutes, loaded onto a 10% SDS-PAGE mini gel and electrophoresed. The gel was fixed with 50% methanol and 10% acetic acid for 1 hour, and the autophosphorylation of PKC was determined by autoradiography.
The results in FIG. 8 show PKC autophosphorylation in the presence of DG, PS, and calcium (lane 1), in the presence of EGTA (lane 2), in the presence of anti-βPKC pseudosubstrate antibodies (diluted 1:10 in 20 mM Tris-HCl; lane 3), in the presence of peptide rVI (SEQ ID NO:7; 10 μM; lane 4), in the presence of peptide I (SEQ ID NO:1; 10 μM; lane 5), or in the presence of control peptide (SEQ ID NO:9; 10 μM; lane 6).

[5] = system: PKC; assay: Histone type IIIs phosphorylation by PKC; type: biochemical; settings: absence of PS, DG and calcium; peptide 10 μM
Protocol: Histone type IIIs (Sigma Chemical Company, St. Louis, Mo.) was phosphorylated by PKC (˜10 nM) in the absence (lane 1) and presence of peptide rVI (10 μM) (lanes 2 and 3) and in the presence and absence of DG (0.8 μg/ml), PS (50 μg/ml) and CaCl2 (1 mM) (lane 3). The results are expressed as percentage of control that is the amount of Histone phosphorylation by PKC in the presence of DG (0.8 μg/ml), PS (50 μg/ml) and CaCl2 (1 mM). The results are the average ± SEM of two independent experiments. PKC was first incubated with the peptide rVI (10 μM) for 15 minutes in overlay buffer as described above. Histone type IIIs (40 μg/ml) was added in Tris-HCl (20 mM), MgCl2 (20 mM), ATP (20 μM) and ([γ-^32P]ATP (5 μci/ml) with or without PS (50 μg/ml), DG (0.8 μg/ml) and CaCl2 (1 mM). Histone phosphorylation was determined by autoradiography as above.

[6] = system: δ and εPKC isozymes; assay: PKC isozyme translocation and degradation in cardiac myocytes; type: cell-based, rat
Protocol: In cardiac myocytes, norepinephrine (NE, 2 μM) causes translocation of δ and εPKC isozymes from the cytosolic to the particulate fraction. […] This peptide-induced translocation was followed by degradation of δ and εPKC isozymes.

[7] = peptide 50 μM microinjected, insulin 8.25 μg/ml
[8] = peptide introduced into cardiac myocytes

T1 sequence (P68403 whole entry): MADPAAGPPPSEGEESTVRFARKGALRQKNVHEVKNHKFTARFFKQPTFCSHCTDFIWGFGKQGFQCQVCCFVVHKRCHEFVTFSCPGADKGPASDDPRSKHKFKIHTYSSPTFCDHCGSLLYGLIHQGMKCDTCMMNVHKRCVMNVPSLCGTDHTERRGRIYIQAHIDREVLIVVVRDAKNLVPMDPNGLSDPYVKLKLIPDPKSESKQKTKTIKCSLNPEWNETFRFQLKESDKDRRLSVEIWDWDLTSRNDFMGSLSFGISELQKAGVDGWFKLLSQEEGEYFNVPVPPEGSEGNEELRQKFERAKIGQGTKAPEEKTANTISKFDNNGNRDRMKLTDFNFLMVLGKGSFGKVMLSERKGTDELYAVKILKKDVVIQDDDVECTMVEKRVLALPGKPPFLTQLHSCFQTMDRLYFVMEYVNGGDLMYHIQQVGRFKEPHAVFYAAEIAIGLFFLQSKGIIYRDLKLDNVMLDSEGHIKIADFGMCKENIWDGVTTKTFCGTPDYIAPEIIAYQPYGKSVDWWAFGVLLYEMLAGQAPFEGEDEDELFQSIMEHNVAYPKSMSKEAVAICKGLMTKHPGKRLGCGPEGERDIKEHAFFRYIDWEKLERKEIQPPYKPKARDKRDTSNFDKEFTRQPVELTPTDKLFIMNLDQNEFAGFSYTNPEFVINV

peptide rVII: synthetic peptide based on the corresponding region of RACK1 WD-40 repeat VII (PQCTSLA)
inhibition of PKC binding to RACK1 (in words) [1]: no inhibition

peptide rV: synthetic peptide based on the corresponding region of RACK1 WD-40 repeat V (GYLNTVT)
inhibition of PKC binding to RACK1 (in words) [1]: lesser inhibitory effect

peptide rI: synthetic peptide based on the corresponding region of RACK1 WD-40 repeat I (VTQIATT)
inhibition of PKC binding to RACK1 (in words) [1]: effective inhibitors

peptide rII: synthetic peptide based on the corresponding region of RACK1 WD-40 repeat II (FVSDVVI)
inhibition of PKC binding to RACK1 (in words) [1]: effective inhibitors

control peptide: control peptide (SEQ ID NO:9) (LKGKIL) [reference compound]
nicking of βPKC by Arg-C (78 kDa fragment) [2]: did not result in appreciable nicking activity; also recorded: did not occur
delay to onset of maturation after exposure to insulin [3, 7]: 4 to 5 h
time to reach GVBD plateau after insulin exposure [3, 7]: 10 to 12 h
plateau % GVBD (fraction of oocytes reaching maturation) following insulin exposure ([3]; insulin 8.25 μg/ml): 85-90%
induction of PKC autophosphorylation (in words) [4]: No autophosphorylation; also recorded: Neither peptide I nor control peptide induced PKC autophosphorylation

peptide rIII: seven amino acid peptide identical to a segment of RACK1 WD-40 repeat III (DVLSVAF)
nicking of βPKC by Arg-C (78 kDa fragment) [2]: appearance of the 78 kDa nicked PKC fragment
induction of PKC-mediated histone phosphorylation [5]: similarly induced histone phosphorylation
NE-induced translocation of δ and εPKC ([6]; norepinephrine 2 μM): further enhanced
degradation of PKC isozymes [6, 8]: followed by degradation of these activated isozymes; also recorded: accelerated the degradation of PKC
translocation / distribution of δ and εPKC isozymes in the absence of hormone stimulation [6, 8]: caused an immediate translocation
inhibition of PKC binding to RACK1 (in words) [1]: inhibit the binding of PKC to RACK1; also recorded: somewhat more effective than peptide rVI
effect on insulin-induced oocyte maturation (in words) ([3]; at 50 and 500 μM): enhances insulin-induced oocyte maturation
plateau % GVBD (fraction of oocytes reaching maturation) following insulin exposure ([3]; insulin 8.25 μg/ml): ~100%
effect on insulin-induced oocyte maturation (in words) ([3]; peptide microinjected, insulin): potentiated the effects of insulin on oocyte maturation

rIV: synthetic peptide based on the corresponding region of RACK1 WD-40 repeat IV (VSCVRFS)
inhibition of PKC binding to RACK1 (in words) [1]: lesser inhibitory effect
